Assay results from US5631382A, “Fulgimide compound” (Tokuyama Corporation, priority 1994, dated 1997).

How the values were obtained:
Assay type in all cases: physicochemical
[1] = Developed color of polymer plate under xenon light (color density, maximum absorption wavelength); details: for Color density: 0.04 parts in polymer plate; for λ max: state of developing color, polymer plate
From the text: (§1) 0.04 Parts of fulgimide compounds shown in Table 3, 70 parts of tetraethyleneglycol dimethacrylate, 15 parts of triethyleneglycol dimethacrylate, 10 parts of glycidyl methacrylate, 5 parts of 2-hydroethylmethacrylate and 1 part of perbutyl ND as a polymerization catalyst, were sufficiently mixed together until they were completely dissolved. The mixture solution was poured into a mold constituted by a glass plate and a gasket of an ethylene/vinyl acetate copolymer, and its temperature was elevated in an air oven from 35° C. to 90° C. over a period of 20 hours to effect the polymerization. After the polymerization, the polymer was taken out from the glass mold.
(§2) The obtained polymer plate was irradiated with xenon light by using a Xenon Long-Life Fade Meter FAL-25AX-HC (output: 2.5 KW, source of light: xenon long-life arc lamp) manufactured by Suga Shikenki Co., in order to measure a maximum absorption wavelength in a state of developing color. The initial color tone was observed by eyes, and YI of the samples was measured by using a color-difference meter (Model SM-4) manufactured by Suga Shikenki Co. The wear life (T 1/2) was also measured in compliance with JIS L0843 and JIS B7754. T 1/2 is defined to be the time until the color density decreases down to one-half the initial value when the polymer plate is irradiated with light by using the fade meter.
(§3) For the purpose of comparison, the fulgimide compounds represented by the following formulas (A) to (I) were also used to prepare polymer plates to measure their properties in the same procedure as described above. [drawing 113]

[2] = Initial color of polymer plate (visual observation, YI by color-difference meter); details: for Initial color, visually observed: before irradiation; for Initial color, YI: color-difference meter SM-4
From the text: as §1, §2, §3

[3] = Wear life (T 1/2) of polymer plate in xenon fade meter, JIS L0843 and JIS B7754; details: time until color density decreases to one-half the initial value
From the text: as §1, §2, §3

Color density [1] | λ max [1] [nm] | Initial color, visually observed [2] | Initial color, YI [2] | T1/2 [3] [h] | SMILES
0.68 | 540 | yellow | 10.03 | 100 | CCN1C(=O)C2=C(C)c3ccsc3C3(C4CC5CC(C4)CC3C5)C2C1=O (stereo not drawn) [A, reference compound]
0.75 | 550 | yellow | 10.65 | 95 | CC1=C2C(=O)N(CC#N)C(=O)C2C2(c3oc(-c4ccccc4)cc31)C1CC3CC(C1)CC2C3 (stereo not drawn) [B, reference compound]
0.77 | 560 | yellow | 17.56 | 95 | COc1ccc(-c2cc3c(o2)C2(C4CC5CC(C4)CC2C5)C2C(=O)N(CC#N)C(=O)C2=C3C)cc1 (stereo not drawn) [C, reference compound]
0.65 | 615 | colorless | 1.85 | 400 | N#CN1C(=O)C2=C(C3CC3)c3ccsc3C3(C4CC5CC(C4)CC3C5)C2C1=O (stereo not drawn) [Compound 1, N-Cyano-4-cyclopropyl-6,7-dihydrospirobenzothiophenedicarboxyimide-7,2'-tricyclo[3.3.1.1^3,7]decane]
1.20 | 560 | colorless | 2.01 | 140 | CC(=O)N1C(=O)C2=C(C3CC3)c3ccsc3C3(C4CC5CC(C4)CC3C5)C2C1=O (stereo not drawn) [Compound 2, N-Acetyl-4-cyclopropyl-6,7-dihydrospirobenzothiophenedicarboxyimide-7,2'-tricyclo[3.3.1.1^3,7]decane]
0.90 | 570 | colorless | 3.84 | 135 | O=C1C2=C(C3CC3)c3ccsc3C3(C4CC5CC(C4)CC3C5)C2C(=O)N1C(=O)c1ccccc1 (stereo not drawn) [Compound 3, N-Benzoyl-4-cyclopropyl-6,7-dihydrospirobenzothiophenedicarboxyimide-7,2'-tricyclo[3.3.1.1^3,7]decane]
1.43 | 562 | colorless | 2.15 | 140 | CC(=O)N1C(=O)C2=C(C3CC3)c3cc(C)sc3C3(C4CC5CC(C4)CC3C5)C2C1=O (stereo not drawn) [Compound 4, N-Acetyl-4-cyclopropyl-6,7-dihydro-2-methylspirobenzothiophenedicarboxyimide-7,2'-tricyclo[3.3.1.1^3,7]decane]
1.12 | 603 | colorless | 3.96 | 260 | CC1=C2C(=O)N(C#N)C(=O)C2C2(c3oc(-c4ccccc4)cc31)C1CC3CC(C1)CC2C3 (stereo not drawn) [Compound 5]
0.95 | 601 | pale yellow | 4.85 | 110 | CC(C)C1=C2C(=O)N(S(C)(=O)=O)C(=O)C2C2(c3c1ccn3C)C1CC3CC2CC(Cl)(C3)C1 (stereo not drawn) [Compound 6, 5'-Chloro-6,7-dihydro-N-methyl-N'-methylsulfonyl-4-isopropylspiroindoledicarboxyimide-7,2'-tricyclo[3.3.1.1^3,7]decane]
0.85 | 550 | colorless | 2.15 | 100 | CCC1=C2C(=O)N(C(=O)C(Cl)(Cl)Cl)C(=O)C2C2(c3sc4cc(OC)ccc4c31)C1CC3CC(Cl)(C1)CC2(Cl)C3 (stereo not drawn) [Compound 7, 3',5'-Dichloro-3,4-dihydro-1-ethyl-7-methoxy-N-trichloromethylcarbonylspirodibenzo[5,6-b:d]thiophenedicarboxyimide-4,2'-tricyclo[3.3.1.1^3,7]decane]
0.98 | 541 | colorless | 3.94 | 110 | COc1ccc(C2=C3C(=O)N(C(=O)c4ccccc4)C(=O)C3C3(c4oc5ccccc5c42)C2CC4CC3CC(C)(C4)C2)cc1 (stereo not drawn) [Compound 8, N-Benzoyl-3,4-dihydro-5'-methyl-1-(p-methoxyphenyl)spirobenzo[5,6-b:d]furandicarboxyimide-4,2-tricyclo[3.3.1.1^3,7]decane]
1.02 | 610 | colorless | 3.85 | 145 | COC12CC3CC(C1)C1(c4c(c5ccccc5n4-c4ccccc4)C(C4CC4)=C4C(=O)N(C(Cl)(Cl)Cl)C(=O)C41)C(C3)C2 (stereo not drawn) [Compound 9]
1.12 | 620 | pale yellow | 4.99 | 140 | O=C1C2=C(C3CC3)c3c(sc4c3CCCC4)C3(C4CC5CC(C4)CC3C5)C2C(=O)N1S(=O)(=O)c1ccccc1 (stereo not drawn) [Compound 10]
0.88 | 630 | colorless | 2.35 | 100 | CC1=C2C(=O)N(C(=O)c3cccc(C#N)c3)C(=O)C2C2(c3c1c1c(n3C)CCCC1)C1CC3CC(F)(C1)CC2(F)C3 (stereo not drawn) [Compound 11]
1.02 | 593 | colorless | 2.25 | 140 | CC12CCCC(CCC1)C21c2sc([N+](=O)[O-])cc2C(C2CC2)=C2C(=O)N(C(=O)c3c(F)c(F)c(F)c(F)c3F)C(=O)C21 (stereo not drawn) [Compound 12]
0.75 | 603 | pale yellow | 4.89 | 100 | Cn1c(Cl)cc2c1C1(C3CCCC1(Cl)CCC3)C1C(=O)N(C(F)(F)F)C(=O)C1=C2c1ccccc1 (stereo not drawn) [Compound 14]
0.85 | 520 | colorless | 2.95 | 110 | CCOC(=O)N1C(=O)C2=C(C)c3c(sc4ccccc34)C3(C4CCCC3(OC)CCC4)C2C1=O (stereo not drawn) [Compound 15]
1.05 | 625 | colorless | 3.56 | 100 | CC(=O)N1C(=O)C2=C(C)c3c4c(n(-c5ccccc5)c3C3(C5CCCC3CCC5)C2C1=O)CCCC4 (stereo not drawn) [Compound 16]
1.10 | 610 | colorless | 3.10 | 140 | CCCCC12CCC(CC1)C21c2sc(C)c(CC)c2C(C2CC2)=C2C(=O)N(C(=O)c3cccc(C(F)(F)F)c3)C(=O)C21 (stereo not drawn) [Compound 17]
1.11 | 613 | colorless | 2.95 | 250 | N#CN1C(=O)C2=C(c3ccoc3)c3ccoc3C3(C4CCC3CC4)C2C1=O (stereo not drawn) [Compound 18]
0.81 | 603 | colorless | 3.05 | 110 | CSc1cc2c(n1C)C1(C3C(=O)N(C(F)(F)F)C(=O)C3=C2C(C)C)C2(C)CCC1(C)CC2 (stereo not drawn) [Compound 19]
0.95 | 548 | pale yellow | 4.85 | 100 | CCOC12CCC(CC1)C21c2sc3ccccc3c2C(CC)=C2C(=O)N(S(=O)(=O)CC)C(=O)C21 (stereo not drawn) [Compound 20]
0.95 | 540 | colorless | 2.95 | 115 | O=C1C2=C(c3ccccc3)c3c(oc4ccccc34)C3(C4CCC3CC4)C2C(=O)N1C(Cl)(Cl)Cl (stereo not drawn) [Compound 21]
0.87 | 600 | colorless | 2.36 | 140 | CC(=O)N1C(=O)C2=C(C3CC3)c3c(sc4c3CCCC4)C3(C4CCC3CC4)C2C1=O (stereo not drawn) [Compound 23]
0.94 | 576 | colorless | 2.45 | 140 | CCCC1=C2C(=O)N(C(Cl)(Cl)Cl)C(=O)C2C2(c3oc4c(c31)CCCC4)C1CCC2CC1 (stereo not drawn) [Compound 24]
0.71 | 619 | colorless | 3.26 | 100 | CC1=C2C(=O)N(S(=O)(=O)c3cc(Cl)cc(Cl)c3)C(=O)C2C2(c3c1c1c(n3-c3ccccc3)CCCC1)C1CCC2CC1 (stereo not drawn) [Compound 25]
0.54 | 546 | colorless | 3.84 | 120 | COc1c(C)sc2c1C1(C3CC4CC(C3)CC1C4)C1C(=O)N(C(=O)Oc3ccccc3)C(=O)C1=C2C (stereo not drawn) [Compound 26]
